Results as given in patent US9169217B2, “Arylalkyl esters of 4-amino-6-(substituted phenyl)-picolinates and 6-amino-2-(substituted phenyl)-pyrimidinecarboxylates and their use as selective herbicides for crops” (Dow AgroSciences LLC, priority 2011, dated 2015).

How the values were obtained:
Assay type in all cases: in vivo
[1] = tested on: Cirsium arvense (Thistle, Canada); experiment: Postemergence herbicidal activity in cereal crops (Example 14); conditions: wheat cropping systems, postemergence spray, 21 DAA
[2] = tested on: Solidago L. spec (Goldenrod); experiment: Postemergence herbicidal activity in pastures (Example 15); conditions: pasture cropping systems, postemergence spray, 35 DAA
Description: (§1) Seeds of the desired test plant species were planted in Sun Gro Metro-Mix® 360 planting mixture, which typically has a pH of 6.0 to 6.8 and an organic matter content of about 30 percent, in plastic pots with a surface area of 139.7 cm^2. When required to ensure good germination and healthy plants, a fungicide treatment and/or other chemical or physical treatment was applied. The plants were grown with an approximate 14 h photoperiod which was maintained at about 24° C. during the day and 21° C. during the night. Nutrients and water were added on a regular basis and supplemental lighting was provided with overhead metal halide 1000-Watt lamps as necessary. The plants were employed for testing when they reached the four or six true leaf stage, depending on species.
(§2) Treatments consisted of esters of compounds 39 and G. Compound G is methyl 4-amino-3-chloro-6-(4-chloro-2-fluoro-3-methoxyphenyl)picolinate. A weighed amount, determined by the highest rate to be tested, of each test compound was placed in a 25 mL glass vial and was dissolved in 8 mL of a 97:3 v/v mixture of acetone and DMSO to obtain concentrated stock solutions. […] The concentrated stock solutions obtained were diluted with 16 mL of an aqueous mixture containing acetone, water, isopropyl alcohol, DMSO, Agri-dex crop oil concentrate, and Triton® X-77 surfactant in a 64.7:26.0:6.7:2.0:0.7:0.01 v/v ratio to obtain spray solutions containing the highest application rates. Additional application rates were obtained by serial dilution of 12 mL of the high rate solution into a solution containing 4 mL of a 97:3 v/v mixture of acetone and DMSO and 8 mL of an aqueous mixture containing acetone, water, isopropyl alcohol, DMSO, Agri-dex crop oil concentrate, and Triton® X-77 surfactant in a 48.5:39.0:10.0:1.5:1.0:0.02 v/v ratio to obtain ½×, ¼×, ⅛× and 1/16× rates of the high rate. Compound requirements are based upon a 12 mL application volume at a rate of 187 L/ha. Formulated compounds were applied to the plant material with an overhead Mandel track sprayer equipped with 8002E nozzles calibrated to deliver 187 L/ha over an application area of 0.503 m^2 at a spray height of 18 inches (43 cm) above average plant canopy height. Control plants were sprayed in the same manner with the blank.
(§3) The treated plants and control plants were placed in a greenhouse as described above and watered by sub-irrigation to prevent wash-off of the test compounds. After 35 d, the condition of the test plants as compared with that of the untreated plants was determined visually and scored on a scale of 0 to 100 percent where 0 corresponds to no injury and 100 corresponds to complete kill.

[3] = tested on: Cirsium arvense (Thistle, Canada); experiment: as above; conditions: pasture cropping systems, postemergence spray, 35 DAA
Description: as §1, §2, §3

## COc1c(Cl)ccc(-c2cc(N)c(Cl)c(C(=O)OCc3ccccc3)n2)c1F [Compound 39]
[1]; 8.75 g ae/ha
  Visual Injury (%) CIRAR: 90%
[1]; 17.5 g ae/ha
  Visual Injury (%) CIRAR: 95%
[2]; 70 g ae/ha
  Visual Injury (%) SOOSS: 85%
[2]; 140 g ae/ha
  Visual Injury (%) SOOSS: 100%
[3]; 17.5 g ae/ha
  Visual Injury (%) CIRAR: 100%
[3]; 35 g ae/ha
  Visual Injury (%) CIRAR: 95%

## COC(=O)c1nc(-c2ccc(Cl)c(OC)c2F)cc(N)c1Cl [Compound G, methyl 4-amino-3-chloro-6-(4-chloro-2-fluoro-3-methoxyphenyl)picolinate, reference compound]
[1]; 8.75 g ae/ha
  Visual Injury (%) CIRAR: 70%
[1]; 17.5 g ae/ha
  Visual Injury (%) CIRAR: 80%
[2]; 70 g ae/ha
  Visual Injury (%) SOOSS: 30%
[2]; 140 g ae/ha
  Visual Injury (%) SOOSS: 50%
[3]; 17.5 g ae/ha
  Visual Injury (%) CIRAR: 40%
[3]; 35 g ae/ha
  Visual Injury (%) CIRAR: 60%
